In US12465607B2, “ALK inhibitors for treatment of ALK-negative cancer and plasma cell-mediated diseases” (UNIVERSITETET I OSLO, priority 2019, dated 2025):

Tested on: L363
Assay: Myeloma cell line viability, CCK-8, 24 hr
Format: cell-based, human
Description: The Results are the means of 3 independent experiments. Note the concentration-dependent reduction of viability of myeloma cells.
The cell lines used were the human multiple myeloma cell lines L363 (DSMZ catalogue number ACC 49), AMO-1 (DSMZ catalogue number ACC 538) and ARH-77 (ATCC CRL-1621).
Multiple myeloma cell lines were maintained in RPMI-1640 culture medium (Sigma-Aldrich, Buchs, Switzerland) supplemented with 10% heat-inactivated fetal bovine serum (FBS), 100 μg/ml streptomycin and 100 U/ml penicillin/streptomycin (Sigma-Aldrich, Buchs, Switzerland). The bortezomib-resistant cell lines were established and maintained from their parental cell line by continuous drug exposure>12 months to their parental cell lines (Soriano et al, Leukemia 30: 2198-2207, 2016).
The viability of the cells was determined 24 hr post treatment using Cell Counting Kit-8 (CCK-8; MedChemExpress, NJ, USA) according to the manufacturer's instructions.

IC50 (Homo sapiens, L-363, L363, 24 hr treatment): 3.32 µM
Structure (SMILES): C[C@@H](Oc1cc(-c2cnn(C3CCNCC3)c2)cnc1N)c1c(Cl)ccc(F)c1Cl [crizotinib, 3-[(1R)-1-(2,6-dichloro-3-fluorophenyl)ethoxy]-5-(1-piperidin-4-ylpyrazol-4-yl)pyridin-2-amine]
cell viability (L363, 24 h): clear reductions in cell viability
